Target: T1, mTOR (UniProt P42346+P62942)
T1 construct: purchased Calbiochem CBA055
Test: mTOR Assay Screening Protocol (K-LISA mTOR Activity Kit, inhibitor with FKBP12)
Format: biochemical
Conditions: mTOR Standard pre-incubated with inhibitor and FKBP12 (35-37 ug/ml); p70S6K-T389 phosphorylation ELISA, absorbance at 450 nm
Experimental: mTOR Assay Screening Protocol
Kit: Calbiochem Cat. No. CBA055: K-LISA mTOR Activity Kit
The following table provides reagent preparation instructions to obtain the volume of Working Solutions (WS) required for 10 wells. Volumes can be scaled to process more samples and provide overage for pipetting error.
Reagent Volume (per 10-well strip) Composition: mTOR Substrate WS: 1 ml Dilution factor: 1:400 FKBP12: Sigma F5398 FK-Binding Protein human, recombinant, expressed in Escherichia coli
A. Protocol for mTOR Kinase Activity and Inhibitor Screening: 1. Remove the required number of strips from the Glutathione-Coated 96-Well Plate and place them in the 96-well frame. 2. Add 100 μl mTOR Substrate WS to each well and incubate for 1 h at room temperature. 3. When performing inhibitor screening/testing, pre-incubate 50 μl mTOR Standard (from step 2) with test inhibitor or wortmannin in a separate tube on ice for 20 min (for example 50 μl mTOR Standard with 1 μl Woltmannin, 50×). This pre-incubation can be carried out during the incubation in step 2. • For inhibitor testing: weigh out inhibitor and resuspend in DMSO to a concentration of 5 mM prior to addition to assay • Test concentrations for inhibitors in assay ranged from 10 uM-0.0048 uM (final concentrations) • Inhibitor reaction contained: mTOR Standard, inhibitor (at indicated concentration) and FKBP12 (at 35-37 ug/ml) • Dilutions of inhibitors made in TBS • Controls for assay include: mTOR Standard only, mTOR Substrate only (blank), FKBP12+mTOR Standard (no inhibitor), inhibitor compound+mTOR Standard (no FKBP12), 4. Aspirate contents of the wells and wash each well of the Glutathione-Coated 96-Well Plate with 200 μl TBS. Empty the contents of the wells into the sink and dry the wells by tapping the inverted plate on paper towels. Repeat for a total of 3 washes. 5. Add the following components to each well in the specified order: […]
mTOR Standard or mTOR Sample* (diluted to assay range with phosphate-free buffer or water): 50 μl 2× Kinase Assay Buffer WS: 50 μl
*Pre-incubated with inhibitor in step 3 or without inhibitor 6. Cover the plate with the Plate Sealer, mix with a plate shaker or equivalent for 30 seconds, and incubate for 30 minutes at 30° C. 7. Stop the kinase reaction by adding 10 μl Kinase Stop Solution to each well. (Reaction may also be stopped simply by discarding the contents of the wells). 8. Aspirate the contents of each well and wash with 200 μl Plate Wash (1×). Gently agitate the plate using a plate shaker or equivalent for 5 min. Empty the contents of the wells into the sink and dry the wells by tapping the inverted plate on paper towels. Wash the plate 2 more times without shaking the plate. 9. Add 100 μl Anti-p70S6K-T389 WS to each well, cover the plate with the Plate Sealer, and incubate 1 h at room temperature. 10. Wash the plate 4 times as outlined in step 8 without shaking the plate. 11. Add 100 μl HRP-Antibody Conjugate WS to each well, cover the plate with the Plate Sealer, and incubate 1 h at room temperature. 12. Wash the plate as outlined in step 10. 13. Add 100 μl TMB Substrate to each well, cover the plate with the Plate Sealer, and incubate 5-20 min at room temperature. 14. […] 15. Analyze data using Microsoft Excel and GraphPad Prism software.

T1 sequence (P62942 2-108 limits assumed, other chains not shown): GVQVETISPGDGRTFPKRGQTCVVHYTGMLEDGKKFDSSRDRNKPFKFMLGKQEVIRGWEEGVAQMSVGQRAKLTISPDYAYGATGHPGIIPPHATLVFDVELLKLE

| SMILES | IC50 [nM] |
| --- | --- |
| CO[C@H]1C[C@@H]2CC[C@@H](C)[C@@](O)(O2)C(=O)C(=O)N2CCCC[C@H]2C(=O)O[C@H]([C@H](C)C[C@@H]2CC[C@@H](OC[Si](C)(C)C)[C@H](OC)C2)CC(=O)[C@H](C)/C=C(\C)[C@@H](O)[C@@H](OC)C(=O)[C@H](C)C[C@H](C)/C=C/C=C/C=C/1C [Example 11, 42-O-[Trimethylsilyl-methyl]-rapamycin] | 2300 |
| CO[C@H]1C[C@@H]2CC[C@@H](C)[C@@](O)(O2)C(=O)C(=O)N2CCCC[C@H]2C(=O)O[C@H]([C@H](C)C[C@@H]2CC[C@@H](OC(=O)NS(=O)(=O)N3CC[C@@H](O)C3)[C@H](OC)C2)CC(=O)[C@H](C)/C=C(\C)[C@@H](O)[C@@H](OC)C(=O)[C@H](C)C[C@H](C)/C=C/C=C/C=C/1C [Example 4, 42-O—[(R)-3-hydroxypyrrolidin-1-ylsulfonylcarbamyl]-rapamyein] | 10 |
| CO[C@H]1C[C@@H]2CC[C@@H](C)[C@@](O)(O2)C(=O)C(=O)N2CCCC[C@H]2C(=O)O[C@H]([C@H](C)C[C@@H]2CC[C@@H](OC(=O)NS(=O)(=O)N(CCO)CCO)[C@H](OC)C2)CC(=O)[C@H](C)/C=C(\C)[C@@H](O)[C@@H](OC)C(=O)[C@H](C)C[C@H](C)/C=C/C=C/C=C/1C [Example 3, 42-O—[N,N-Bis(2-hydroxyethyl)aminosulfonylcarbamyl]-rapamycin] | 110 |
| CO[C@H]1C[C@@H]2CC[C@@H](C)[C@@](O)(O2)C(=O)C(=O)N2CCCC[C@H]2C(=O)O[C@H]([C@H](C)C[C@@H]2CC[C@@H](OCCOC[Si](C)(C)C)[C@H](OC)C2)CC(=O)[C@H](C)/C=C(\C)[C@@H](O)[C@@H](OC)C(=O)[C@H](C)C[C@H](C)/C=C/C=C/C=C/1C [Example 12, 42-O-[2-(Trimethylsilan-methoxy)-ethyl]-rapamycin] | 30 |
| CO[C@H]1C[C@@H]2CC[C@@H](C)[C@@](O)(O2)C(=O)C(=O)N2CCCC[C@H]2C(=O)O[C@H]([C@H](C)C[C@@H]2CC[C@@H](OC(=O)NS(=O)(=O)N(C)C)[C@H](OC)C2)CC(=O)[C@H](C)/C=C(\C)[C@@H](O)[C@@H](OC)C(=O)[C@H](C)C[C@H](C)/C=C/C=C/C=C/1C [Example 2, 42-O-[Dimethylaminosulfonylcarbamyl]-rapamycin] | 30 |
| CO[C@H]1C[C@@H]2CC[C@@H](C)[C@@](O)(O2)C(=O)C(=O)N2CCCC[C@H]2C(=O)O[C@H]([C@H](C)C[C@@H]2CC[C@@H](OC(=O)NS(=O)(=O)N3CCOCC3)[C@H](OC)C2)CC(=O)[C@H](C)/C=C(\C)[C@@H](O)[C@@H](OC)C(=O)[C@H](C)C[C@H](C)/C=C/C=C/C=C/1C [Example 1, 42-O-[Morpholinosulfonylcarbamyl]-rapamycin] | 10 |

Now from value to molecule:

| IC50 [nM] | SMILES |
| --- | --- |
| 1 | CO[C@H]1C[C@@H]2CC[C@@H](C)[C@@](O)(O2)C(=O)C(=O)N2CCCC[C@H]2C(=O)O[C@H]([C@H](C)C[C@@H]2CC[C@@H](OC(=O)NS(=O)(=O)Nc3ccc(O)cc3)[C@H](OC)C2)CC(=O)[C@H](C)/C=C(\C)[C@@H](O)[C@@H](OC)C(=O)[C@H](C)C[C@H](C)/C=C/C=C/C=C/1C [Example 5, 42-O-[4-Hydroxyanilinsulfonylcarbamyl]-rapamycin] |
| 70 | CO[C@H]1C[C@@H]2CC[C@@H](C)[C@@](O)(O2)C(=O)C(=O)N2CCCC[C@H]2C(=O)O[C@H]([C@H](C)C[C@@H]2CC[C@@H](OC(=O)CN3CCC(CCO)CC3)[C@H](OC)C2)CC(=O)[C@H](C)/C=C(\C)[C@@H](O)[C@@H](OC)C(=O)[C@H](C)C[C@H](C)/C=C/C=C/C=C/1C [Example 13, 42-O-[2-(4-(2-Hydroxyethyl)piperidin-1-yl)acetyl]rapamycin] |
| 140 | CO[C@H]1C[C@@H]2CC[C@@H](C)[C@@](O)(O2)C(=O)C(=O)N2CCCC[C@H]2C(=O)O[C@H]([C@H](C)C[C@@H]2CC[C@@H](OCCCS(=O)(=O)N3CCOCC3)[C@H](OC)C2)CC(=O)[C@H](C)/C=C(\C)[C@@H](O)[C@@H](OC)C(=O)[C@H](C)C[C@H](C)/C=C/C=C/C=C/1C [Example 17, 42-O-[3-(Morpholinosulfonyl)propyl]-rapamycin] |
| 2500 | CO[C@H]1C[C@@H]2CC[C@@H](C)[C@@](O)(O2)C(=O)C(=O)N2CCCC[C@H]2C(=O)O[C@H]([C@H](C)C[C@@H]2CC[C@@H](OC(=O)N3CCN(C)CC3)[C@H](OC)C2)CC(=O)[C@H](C)/C=C(\C)[C@@H](O)[C@@H](OC)C(=O)[C@H](C)C[C@H](C)/C=C/C=C/C=C/1C [Example 6, 42-O-[4-Methylpiperazine-1-carboxy]-rapamycin] |
| 70 | CO[C@H]1C[C@@H]2CC[C@@H](C)[C@@](O)(O2)C(=O)C(=O)N2CCCC[C@H]2C(=O)O[C@H]([C@H](C)C[C@@H]2CC[C@@H](OC(=O)CN3CCC(O)CC3)[C@H](OC)C2)CC(=O)[C@H](C)/C=C(\C)[C@@H](O)[C@@H](OC)C(=O)[C@H](C)C[C@H](C)/C=C/C=C/C=C/1C [Example 8, 42-O-[2-(4-Hydroxypiperidin-1-yl)acetyl]-rapamycin] |
| 300 | CO[C@H]1C[C@@H]2CC[C@@H](C)[C@@](O)(O2)C(=O)C(=O)N2CCCC[C@H]2C(=O)O[C@H]([C@H](C)C[C@@H]2CC[C@@H](OC(=O)NCCN3CCOCC3)[C@H](OC)C2)CC(=O)[C@H](C)/C=C(\C)[C@@H](O)[C@@H](OC)C(=O)[C@H](C)C[C@H](C)/C=C/C=C/C=C/1C [Example 16, 42-O-(2-Morpholinoethylaminocarbonyl)-rapamycin] |
| 210 | CO[C@H]1C[C@@H]2CC[C@@H](C)[C@@](O)(O2)C(=O)C(=O)N2CCCC[C@H]2C(=O)O[C@H]([C@H](C)C[C@@H]2CC[C@@H](OC(=O)N3CCC(O)CC3)[C@H](OC)C2)CC(=O)[C@H](C)/C=C(\C)[C@@H](O)[C@@H](OC)C(=O)[C@H](C)C[C@H](C)/C=C/C=C/C=C/1C [Example 15] |
| 240 | CO[C@H]1C[C@@H]2CC[C@@H](C)[C@@](O)(O2)C(=O)C(=O)N2CCCC[C@H]2C(=O)O[C@H]([C@H](C)C[C@@H]2CC[C@@H](OC(=O)CN(CCO)CCO)[C@H](OC)C2)CC(=O)[C@H](C)/C=C(\C)[C@@H](O)[C@@H](OC)C(=O)[C@H](C)C[C@H](C)/C=C/C=C/C=C/1C [Example 14, 42-O-[2-(Bis(2-hydroxyethyl)amino)acetyl]-rapamycin] |

— US20110098241A1, “RAPAMYCIN ANALOGS AS ANTI-CANCER AGENTS” (PONIARD PHARMACEUTICALS, INC., priority 2008, published 2011)
